Data from PubChem BioAssay AID1259407 (Chemical Carcinogenesis Research Information System (CCRIS), 2018).
The source made the active and inactive calls. The rule behind the calls is not given here.

Tested on: CCRIS mutagenicity, Ames/micronucleus/aberration tests
Assay: CCRIS mutagenicity studies

CC(=O)Nc1ccc2c(c1)Cc1ccccc1-2
mutagenic call (Test System: AMES SALMONELLA TYPHIMURIUM, Strain/Indicator: TA1537, Metabolic Activation: NONE, Method: STANDARD PLATE): inactive; negative | mutagenic call (Test System: AMES SALMONELLA TYPHIMURIUM, Strain/Indicator: TA1537, Metabolic Activation: RAT, LIVER, S-9, AROCLOR 1254, Method: SPIRAL ASSAY): inactive; negative | mutagenic call (Test System: AMES SALMONELLA TYPHIMURIUM, Strain/Indicator: TA1537, Metabolic Activation: RAT, LIVER, S-9, PHENOBARBITAL, Method: STANDARD PLATE): active; positive | mutagenic call (Test System: AMES SALMONELLA TYPHIMURIUM, Strain/Indicator: TA1538, Metabolic Activation: NONE, Method: STANDARD PLATE): inactive; negative | mutagenic call (Test System: AMES SALMONELLA TYPHIMURIUM, Strain/Indicator: TA1538, Metabolic Activation: RAT, LIVER, CYTOSOL, 2-ACETYLAMINOFLUORENE, Method: STANDARD PLATE): active; positive | mutagenic call (Test System: AMES SALMONELLA TYPHIMURIUM, Strain/Indicator: TA1538, Metabolic Activation: RAT, LIVER, CYTOSOL, AROCLOR 1254, Method: STANDARD PLATE): active; positive | mutagenic call (Test System: AMES SALMONELLA TYPHIMURIUM, Strain/Indicator: TA1538, Metabolic Activation: RAT, LIVER, CYTOSOL, Method: STANDARD PLATE): active; positive | mutagenic call (Test System: AMES SALMONELLA TYPHIMURIUM, Strain/Indicator: TA1538, Metabolic Activation: RAT, LIVER, MICROSOMES, 2-ACETYLAMINOFLUORENE, Method: STANDARD PLATE): active; positive | mutagenic call (Test System: AMES SALMONELLA TYPHIMURIUM, Strain/Indicator: TA1538, Metabolic Activation: RAT, LIVER, MICROSOMES, AROCLOR 1254, Method: STANDARD PLATE): active; positive | mutagenic call (Test System: AMES SALMONELLA TYPHIMURIUM, Strain/Indicator: TA1538, Metabolic Activation: RAT, LIVER, MICROSOMES, Method: STANDARD PLATE): active; positive | mutagenic call (Test System: AMES SALMONELLA TYPHIMURIUM, Strain/Indicator: TA1538, Metabolic Activation: RAT, LIVER, S-9, AROCLOR 1254, Method: STANDARD PLATE): active; positive | mutagenic call (Test System: AMES SALMONELLA TYPHIMURIUM, Strain/Indicator: TA1538, Metabolic Activation: RAT, LIVER, S-9, KC500 OR PHENOBARBITAL, Method: LIQUID SUSPENSION): active; positive | mutagenic call (Test System: AMES SALMONELLA TYPHIMURIUM, Strain/Indicator: TA1538, Metabolic Activation: RAT, LIVER, S-9, PHENOBARBITAL, Method: STANDARD PLATE): active; positive | mutagenic call (Test System: AMES SALMONELLA TYPHIMURIUM, Strain/Indicator: YG1024, Metabolic Activation: HUMAN, HEPATOMA CELLS, BENZO[A]ANTHRACENE, Method: PREINCUBATION): active; positive | mutagenic call (Test System: AMES SALMONELLA TYPHIMURIUM, Strain/Indicator: YG1024, Metabolic Activation: HUMAN, HEPATOMA CELLS, Method: PREINCUBATION): active; positive | mutagenic call (Test System: AMES SALMONELLA TYPHIMURIUM, Strain/Indicator: YG1024, Metabolic Activation: RAT, LIVER, S-9, AROCLOR 1254, Method: PREINCUBATION): active; positive | mutagenic call (Test System: AMES SALMONELLA TYPHIMURIUM, Strain/Indicator: YG1024, Metabolic Activation: RAT, LIVER, S-9, Method: PREINCUBATION): active; positive | mutagenic call (Test System: CHINESE HAMSTER OVARY, Strain/Indicator: AS52/6-THIOGUANINE, Metabolic Activation: NONE): inactive; negative | mutagenic call (Test System: CHINESE HAMSTER OVARY, Strain/Indicator: AS52/6-THIOGUANINE, Metabolic Activation: RAT LIVER S-9, 2-ACETYLAMINOFLUORENE): active; positive | mutagenic call (Test System: CHINESE HAMSTER OVARY, Strain/Indicator: CHO-K1-BH4 (HGPRT), Metabolic Activation: RAT, LIVER, S-9, AROCLOR, Method: SUSPENSION/PLATE): active; positive | mutagenic call (Test System: CHINESE HAMSTER V-79, Strain/Indicator: V-79/6-THIOGUANINE, Metabolic Activation: HAMSTER, LIVER, S-9, AROCLOR 1254, Method: SUSPENSION/PLATE): inactive; negative | mutagenic call (Test System: CHINESE HAMSTER V-79, Strain/Indicator: V-79/6-THIOGUANINE, Metabolic Activation: NONE, Method: SUSPENSION/PLATE): inactive; negative | mutagenic call (Test System: CHINESE HAMSTER V-79, Strain/Indicator: V-79/6-THIOGUANINE, Metabolic Activation: RAT, LIVER, S-9, PHENOBARBITAL AND BETA-NAPHTHOFLAVONE, Method: SUSPENSION/PLATE): inactive; negative | mutagenic call (Test System: E. COLI, Strain/Indicator: WP2 UVRA, Metabolic Activation: HAMSTER, LIVER, S-9, Method: STANDARD PLATE): inactive; negative | mutagenic call (Test System: E. COLI, Strain/Indicator: WP2 UVRA, Metabolic Activation: MOUSE, LIVER, S-9, Method: STANDARD PLATE): inactive; negative | mutagenic call (Test System: E. COLI, Strain/Indicator: WP2 UVRA, Metabolic Activation: NONE, Method: STANDARD PLATE): inactive; negative | mutagenic call (Test System: E. COLI, Strain/Indicator: WP2 UVRA, Metabolic Activation: RAT, LIVER, S-9, AROCLOR 1254, Method: STANDARD PLATE): inactive; negative | mutagenic call (Test System: E. COLI, Strain/Indicator: WP2 UVRA, Metabolic Activation: RAT, LIVER, S-9, Method: STANDARD PLATE): inactive; negative | mutagenic call (Test System: MOUSE LYMPHOMA, Strain/Indicator: L5178Y (TK+/TK-), Metabolic Activation: NONE, Method: SUSPENSION/PLATE): active; positive | mutagenic call (Test System: MOUSE LYMPHOMA, Strain/Indicator: L5178Y (TK+/TK-), Metabolic Activation: RAT, LIVER, S-9, AROCLOR 1254, Method: SUSPENSION/PLATE): active; positive | mutagenic call (Test System: MOUSE LYMPHOMA, Strain/Indicator: L5178Y (TK+/TK-), Metabolic Activation: RAT, LIVER, S-9, Method: SUSPENSION/PLATE): active; positive | mutagenic call (Test System: UDS GUINEA PIG HEPATOCYTES, Strain/Indicator: THY INCORP, Metabolic Activation: NONE, Method: AUTORADIOGRAPHY): active; positive | mutagenic call (Test System: UDS GUINEA PIG HEPATOCYTES, Strain/Indicator: THY INCORP, Metabolic Activation: NONE, Method: LIQUID SCINTILLATION COUNTING): active; positive | mutagenic call (Test System: UDS HAMSTER HEPATOCYTES, Strain/Indicator: THY INCORP, Metabolic Activation: NONE, Method: LIQUID SCINTILLATION COUNTING): active; positive | mutagenic call (Test System: UDS HUMAN FIBROBLASTS, Strain/Indicator: THY INCORP (NON-S-PHASE), Metabolic Activation: NONE, Method: AUTORADIOGRAPHY): active; positive | mutagenic call (Test System: UDS HUMAN HEPATOCYTES, Strain/Indicator: THY INCORP, Metabolic Activation: NONE, Method: AUTORADIOGRAPHY): active; positive | mutagenic call (Test System: UDS MONKEY HEPATOCYTES, Strain/Indicator: THY INCORP, Metabolic Activation: NONE, Method: AUTORADIOGRAPHY): inactive; negative | mutagenic call (Test System: UDS MOUSE HEPATOCYTES, Strain/Indicator: THY INCORP, Metabolic Activation: NONE, Method: LIQUID SCINTILLATION COUNTING): inactive; negative | mutagenic call (Test System: UDS RAT HEPATOCYTES, Strain/Indicator: BROMODEOXYURIDINE INCORP, Metabolic Activation: NONE, Method: FLOW CYTOMETRIC ANALYSIS): active; positive | mutagenic call (Test System: UDS RAT HEPATOCYTES, Strain/Indicator: THY INCORP, Metabolic Activation: AROCLOR 1254, Method: AUTORADIOGRAPHY): active; positive | mutagenic call (Test System: UDS RAT HEPATOCYTES, Strain/Indicator: THY INCORP, Metabolic Activation: NONE, Method: AUTORADIOGRAPHY): active; positive | mutagenic call (Test System: UDS RAT HEPATOCYTES, Strain/Indicator: THY INCORP, Metabolic Activation: NONE, Method: AUTORADIOGRAPHY (SERUM-FREE MEDIA)): active; positive | mutagenic call (Test System: UDS RAT HEPATOCYTES, Strain/Indicator: THY INCORP, Metabolic Activation: NONE, Method: IN VIVO): active; positive | mutagenic call (Test System: UDS RAT HEPATOCYTES, Strain/Indicator: THY INCORP, Metabolic Activation: NONE, Method: LIQUID SCINTILLATION): active; positive | mutagenic call (Test System: UDS RAT HEPATOCYTES, Strain/Indicator: THY INCORP, Metabolic Activation: NONE, Method: LIQUID SCINTILLATION COUNTING): active; positive | mutagenic call (Test System: UDS RODENT HEPATOCYTES, Strain/Indicator: THY INCORP (NON-S-PHASE), Metabolic Activation: NONE, Method: AUTORADIOGRAPHY): active; positive | mutagenic call (Test System: UDS RODENT HEPATOCYTES, Strain/Indicator: THY INCORP (NON-S-PHASE), Method: AUTORADIOGRAPHY): active; positive | mutagenic call (Test System: UDS RODENT HEPATOCYTES, Strain/Indicator: THY INCORP (NON-S-PHASE), Method: LIQUID SCINTILLATION COUNTING): active; positive | mutagenic call (Test System: UDS, Strain/Indicator: HEPG2/THYMIDINE INCORPORATION, Metabolic Activation: NONE, Method: AUTORADIOGRAPHY): active; positive
